Like-named read-outs stand apart in the source and are kept apart here.
Columns and labels:
Type in all cases: cell-based
hTRPA1 [1] = target: T1, hTRPA1 (Homo sapiens, UniProt O75762); assay: calcium fluorescence assay and whole-cell patch clamp in HEK […] cells expressing hTRPA1
T1 construct: gene TRPA1

mTRPA1 = target: T2, mTRPA1 (Mus musculus, UniProt Q8BLA8); assay: calcium fluorescence assay in HEK […] cells expressing mouse TRPA1 ([…]); conditions: HEK293; read-out: % of CA (300 μM) response at 100 μM
T2 construct: gene Trpa1

CaV3.1 = target: T3, CaV3.1 (Homo sapiens, UniProt O43497); assay: patch clamp recording of CaV3.[…] channels, […]
T3 construct: gene CACNA1G

hTRPA1 [2] = target: T1, hTRPA1; assay: calcium fluorescence assay in HEK […] cells expressing hTRPA1 ([…]); conditions: HEK293; read-out: Change in RFU (% Predrug)
hTRPA1 [3] = target: T1, hTRPA1; assay: as above; conditions: HEK293; read-out: % increase in [Ca]i at 30 μM
hTRPA1 [4] = target: T1, hTRPA1; assay: calcium fluorescence assay and whole-cell patch clamp in HEK […] cells expressing hTRPA1; remark: listed apart in the source
hTRPA1 [5] = target: T1, hTRPA1; assay: calcium fluorescence assay in HEK […] cells expressing hTRPA1 ([…]); conditions: HEK293, read-out: % increase in [Ca]i at 30 μM

T1 sequence (O75762 whole entry): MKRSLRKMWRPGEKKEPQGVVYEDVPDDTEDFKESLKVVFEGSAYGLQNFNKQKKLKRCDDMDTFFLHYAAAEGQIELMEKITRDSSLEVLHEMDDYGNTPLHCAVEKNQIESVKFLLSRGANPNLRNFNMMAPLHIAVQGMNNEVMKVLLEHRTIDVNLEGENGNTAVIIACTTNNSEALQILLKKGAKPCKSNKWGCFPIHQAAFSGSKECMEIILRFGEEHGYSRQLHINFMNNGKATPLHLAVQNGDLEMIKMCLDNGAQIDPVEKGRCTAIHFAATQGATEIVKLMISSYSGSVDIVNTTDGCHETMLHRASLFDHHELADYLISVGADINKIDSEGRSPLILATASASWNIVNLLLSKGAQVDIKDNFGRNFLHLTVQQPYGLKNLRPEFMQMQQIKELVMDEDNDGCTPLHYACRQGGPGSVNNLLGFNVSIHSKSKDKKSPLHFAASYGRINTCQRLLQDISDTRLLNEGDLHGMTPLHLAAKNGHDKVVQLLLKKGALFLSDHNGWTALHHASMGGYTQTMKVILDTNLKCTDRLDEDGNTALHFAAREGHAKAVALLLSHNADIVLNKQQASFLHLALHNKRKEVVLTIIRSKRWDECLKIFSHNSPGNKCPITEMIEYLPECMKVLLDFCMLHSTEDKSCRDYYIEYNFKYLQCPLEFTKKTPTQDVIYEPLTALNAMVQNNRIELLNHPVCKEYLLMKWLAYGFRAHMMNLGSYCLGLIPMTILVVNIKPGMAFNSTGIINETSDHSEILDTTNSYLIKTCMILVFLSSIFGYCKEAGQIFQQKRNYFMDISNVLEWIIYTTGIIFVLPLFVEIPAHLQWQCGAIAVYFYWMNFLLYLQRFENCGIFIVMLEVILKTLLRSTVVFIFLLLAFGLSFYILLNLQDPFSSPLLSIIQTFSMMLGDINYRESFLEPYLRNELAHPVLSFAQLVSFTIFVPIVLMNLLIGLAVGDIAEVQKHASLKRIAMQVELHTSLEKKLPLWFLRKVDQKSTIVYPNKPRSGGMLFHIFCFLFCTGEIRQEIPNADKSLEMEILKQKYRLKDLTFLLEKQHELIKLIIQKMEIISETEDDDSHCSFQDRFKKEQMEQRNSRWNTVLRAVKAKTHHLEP
T3 sequence (O43497 whole entry): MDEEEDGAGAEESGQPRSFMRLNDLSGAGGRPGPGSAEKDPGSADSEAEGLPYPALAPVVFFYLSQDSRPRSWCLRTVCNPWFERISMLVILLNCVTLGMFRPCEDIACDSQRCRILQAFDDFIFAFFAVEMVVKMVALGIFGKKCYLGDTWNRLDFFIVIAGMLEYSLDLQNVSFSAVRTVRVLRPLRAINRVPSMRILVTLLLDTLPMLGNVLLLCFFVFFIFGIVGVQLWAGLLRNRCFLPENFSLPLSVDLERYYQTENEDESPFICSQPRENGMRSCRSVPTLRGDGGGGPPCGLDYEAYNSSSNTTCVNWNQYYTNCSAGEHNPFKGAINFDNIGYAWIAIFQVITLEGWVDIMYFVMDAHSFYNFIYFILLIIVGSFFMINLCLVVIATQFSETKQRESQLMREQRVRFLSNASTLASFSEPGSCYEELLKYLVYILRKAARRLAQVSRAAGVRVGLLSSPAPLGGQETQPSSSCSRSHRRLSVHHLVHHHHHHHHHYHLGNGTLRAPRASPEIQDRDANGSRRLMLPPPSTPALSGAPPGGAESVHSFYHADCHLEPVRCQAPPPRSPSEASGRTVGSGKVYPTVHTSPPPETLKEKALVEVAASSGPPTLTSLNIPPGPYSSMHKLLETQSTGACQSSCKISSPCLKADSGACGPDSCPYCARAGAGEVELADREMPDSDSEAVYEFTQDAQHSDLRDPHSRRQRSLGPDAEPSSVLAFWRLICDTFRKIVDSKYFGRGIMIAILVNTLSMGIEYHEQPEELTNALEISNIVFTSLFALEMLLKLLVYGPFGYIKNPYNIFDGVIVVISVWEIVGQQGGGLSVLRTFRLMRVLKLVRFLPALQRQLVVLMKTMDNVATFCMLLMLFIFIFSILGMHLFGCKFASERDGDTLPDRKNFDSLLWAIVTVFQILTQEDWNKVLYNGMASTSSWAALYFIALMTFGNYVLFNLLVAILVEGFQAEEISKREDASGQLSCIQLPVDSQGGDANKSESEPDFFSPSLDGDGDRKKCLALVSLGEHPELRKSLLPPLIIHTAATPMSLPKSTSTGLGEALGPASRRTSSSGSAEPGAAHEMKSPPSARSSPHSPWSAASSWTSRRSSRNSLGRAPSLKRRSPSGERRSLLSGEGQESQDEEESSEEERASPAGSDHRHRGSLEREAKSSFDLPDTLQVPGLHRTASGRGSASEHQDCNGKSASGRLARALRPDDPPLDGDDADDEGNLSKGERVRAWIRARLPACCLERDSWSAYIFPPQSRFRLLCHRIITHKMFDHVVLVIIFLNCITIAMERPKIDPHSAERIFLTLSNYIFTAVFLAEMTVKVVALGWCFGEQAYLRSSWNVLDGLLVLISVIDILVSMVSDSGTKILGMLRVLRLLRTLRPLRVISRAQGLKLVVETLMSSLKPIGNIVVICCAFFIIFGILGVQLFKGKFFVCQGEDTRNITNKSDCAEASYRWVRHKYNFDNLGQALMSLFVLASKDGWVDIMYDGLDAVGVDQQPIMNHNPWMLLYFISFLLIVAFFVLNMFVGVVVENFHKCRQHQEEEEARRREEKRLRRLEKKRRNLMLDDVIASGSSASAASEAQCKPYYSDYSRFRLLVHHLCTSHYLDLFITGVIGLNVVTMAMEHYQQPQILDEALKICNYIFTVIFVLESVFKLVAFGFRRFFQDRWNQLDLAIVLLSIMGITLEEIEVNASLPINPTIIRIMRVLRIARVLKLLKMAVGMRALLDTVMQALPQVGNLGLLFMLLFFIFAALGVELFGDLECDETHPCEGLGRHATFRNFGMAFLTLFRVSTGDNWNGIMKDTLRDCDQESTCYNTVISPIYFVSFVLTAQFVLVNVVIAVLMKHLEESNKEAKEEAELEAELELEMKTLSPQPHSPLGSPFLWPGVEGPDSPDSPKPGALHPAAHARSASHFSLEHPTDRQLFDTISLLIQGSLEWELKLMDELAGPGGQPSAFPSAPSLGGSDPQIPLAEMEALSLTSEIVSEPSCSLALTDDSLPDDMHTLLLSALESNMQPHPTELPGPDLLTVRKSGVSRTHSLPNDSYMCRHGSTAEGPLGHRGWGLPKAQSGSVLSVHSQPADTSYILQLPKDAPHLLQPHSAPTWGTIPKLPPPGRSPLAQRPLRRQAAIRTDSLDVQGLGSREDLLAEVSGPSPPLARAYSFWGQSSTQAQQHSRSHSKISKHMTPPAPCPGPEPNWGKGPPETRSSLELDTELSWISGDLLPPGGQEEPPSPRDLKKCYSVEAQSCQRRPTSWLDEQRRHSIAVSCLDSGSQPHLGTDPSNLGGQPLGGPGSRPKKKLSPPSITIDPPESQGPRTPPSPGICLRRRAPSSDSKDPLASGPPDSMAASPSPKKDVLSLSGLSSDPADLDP
T2 sequence (Q8BLA8 whole entry): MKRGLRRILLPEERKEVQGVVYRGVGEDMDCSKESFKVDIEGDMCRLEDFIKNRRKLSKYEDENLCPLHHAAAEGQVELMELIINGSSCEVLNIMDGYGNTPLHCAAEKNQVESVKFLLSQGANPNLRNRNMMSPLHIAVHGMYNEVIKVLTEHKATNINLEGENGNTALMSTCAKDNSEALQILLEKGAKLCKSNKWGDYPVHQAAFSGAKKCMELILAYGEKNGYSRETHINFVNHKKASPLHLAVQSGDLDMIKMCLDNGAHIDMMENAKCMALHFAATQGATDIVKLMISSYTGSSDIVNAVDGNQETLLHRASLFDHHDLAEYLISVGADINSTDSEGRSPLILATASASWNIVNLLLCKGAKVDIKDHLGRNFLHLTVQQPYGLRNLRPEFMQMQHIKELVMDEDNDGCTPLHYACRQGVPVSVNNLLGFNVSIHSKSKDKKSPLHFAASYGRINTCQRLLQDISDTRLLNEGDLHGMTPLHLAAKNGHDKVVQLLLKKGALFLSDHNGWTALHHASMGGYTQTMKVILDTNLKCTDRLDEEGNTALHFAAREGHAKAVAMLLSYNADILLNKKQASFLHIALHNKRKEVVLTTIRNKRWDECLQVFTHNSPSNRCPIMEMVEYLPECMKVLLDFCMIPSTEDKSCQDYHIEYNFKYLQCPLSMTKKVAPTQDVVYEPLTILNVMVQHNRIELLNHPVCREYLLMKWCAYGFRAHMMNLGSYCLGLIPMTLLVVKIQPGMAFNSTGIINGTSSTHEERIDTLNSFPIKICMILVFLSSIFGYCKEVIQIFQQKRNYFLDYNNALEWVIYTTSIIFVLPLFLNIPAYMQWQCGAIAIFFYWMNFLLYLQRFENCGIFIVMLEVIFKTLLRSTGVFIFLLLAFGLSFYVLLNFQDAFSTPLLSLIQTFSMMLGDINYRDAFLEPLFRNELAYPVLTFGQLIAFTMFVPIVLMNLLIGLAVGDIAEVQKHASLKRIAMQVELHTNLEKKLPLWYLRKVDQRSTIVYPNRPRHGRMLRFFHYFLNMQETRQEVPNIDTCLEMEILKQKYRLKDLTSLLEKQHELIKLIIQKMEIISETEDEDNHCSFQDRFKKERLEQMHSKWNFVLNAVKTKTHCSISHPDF

CCCCC/C=C\C/C=C\C/C=C\C/C=C\CCCC(=O)O [AA, arachidonic acid]
EC50 (hTRPA1 [1]): 13 ± 4 µM | Emax at 100 µM (mTRPA1): 81 ± 4%

CCCCC/C=C\C/C=C\C/C=C\C/C=C\CCCC(=O)O [AA, ω6-arachidonic acid]
inhibition at 10 µM (CaV3.1): 81 ± 4%

CCCCC/C=C\C/C=C\C/C=C\C/C=C\CCCC(=O)OC [AA-ME, Arachidonic acid methyl ester]
activation at 30 µM (hTRPA1 [2]): 302 ± 53%

CCCCC/C=C\C/C=C\C/C=C\C/C=C\CCCC(=O)NCCO [AEA, anandamide]
activation at 30 µM (hTRPA1 [3]): 227 ± 42%

O=C/C=C/c1ccccc1 [CA, Cinnamaldehyde]
EC50 (hTRPA1 [4]): 11 ± 2 µM

CCCCC/C=C\C/C=C\C/C=C\C/C=C\CCCC(=O)N[C@@H](Cc1ccc(O)cc1)C(=O)O [NA-Tyr, N-arachidonoyl tyrosine]
activation at 30 µM (hTRPA1 [5]): 172 ± 20%

CCCCC/C=C\C/C=C\C/C=C\C/C=C\CCCCCC(=O)O [adrenic acid]
inhibition at 10 µM (CaV3.1): 64 ± 8%

— publication PMC3913255, “Ligand determinants of fatty acid activation of the pronociceptive ion channel TRPA1” (PeerJ, 2014)
